Laboratory results published in the CheMixHub ionic liquid set.

Assay: xn = mol fraction of the nth substance listed

CCCCCCCCCCCCCCCC[n+]1ccccc1.O=C([O-])c1ccccc1O + NCC(=O)O + O
electrical conductivity [S/m], 101 kPa
Details | 293.15 K | 298.15 K | 303.15 K | 308.15 K | 313.15 K
x2 = 0.0009002, x1 = 5.4e-07 | 0.000445 | 0.000504 | 0.00057 | 0.000642 | 0.000723
x2 = 0.0009002, x1 = 1.26e-06 | 0.00068 | 0.000773 | 0.00087 | 0.000972 | 0.00108
x2 = 0.0009002, x1 = 1.63e-06 | 0.000841 | 0.000952 | 0.00107 | 0.0012 | 0.00134
x2 = 0.0009002, x1 = 1.99e-06 | 0.000997 | 0.00113 | 0.00127 | 0.00141 | 0.00156
x2 = 0.0009002, x1 = 2.35e-06 | 0.00114 | 0.00129 | 0.00145 | 0.00161 | 0.00179
x2 = 0.0009002, x1 = 2.89e-06 | 0.00127 | 0.00145 | 0.00164 | 0.00184 | 0.00205
x2 = 0.0009002, x1 = 3.43e-06 | 0.00141 | 0.00161 | 0.00185 | 0.00211 | 0.00234
x2 = 0.0009002, x1 = 4.16e-06 | 0.00157 | 0.0018 | 0.00206 | 0.00234 | 0.00264
x2 = 0.0009002, x1 = 4.88e-06 | 0.00173 | 0.00198 | 0.00226 | 0.00258 | 0.00292
x2 = 0.0009002, x1 = 5.6e-06 | 0.0019 | 0.00216 | 0.00247 | 0.00281 | 0.00318
x2 = 0.0009002, x1 = 6.32e-06 | 0.00205 | 0.00234 | 0.00267 | 0.00302 | 0.00343
x2 = 0.0009002, x1 = 6.87e-06 | – | – | – | – | 0.00364
x2 = 0.0009002, x1 = 7.05e-06 | 0.00217 | 0.0025 | 0.00284 | 0.00321 | –
x2 = 0.0009002, x1 = 7.59e-06 | 0.00232 | 0.00264 | 0.003 | 0.00339 | 0.00383
x2 = 0.0009002, x1 = 8.13e-06 | 0.00244 | 0.00278 | 0.00314 | 0.00356 | 0.00402
x2 = 0.0009002, x1 = 8.67e-06 | 0.00258 | 0.00292 | 0.00331 | 0.00374 | 0.00421
x2 = 0.001799, x1 = 3.6e-07 | 0.000498 | 0.000578 | 0.00067 | 0.000776 | 0.0009
x2 = 0.001799, x1 = 9.1e-07 | 0.000684 | 0.000791 | 0.00091 | 0.00104 | 0.00119
x2 = 0.001799, x1 = 1.45e-06 | 0.000895 | 0.00102 | 0.00117 | 0.00132 | 0.0015
x2 = 0.001799, x1 = 1.99e-06 | 0.0011 | 0.00125 | 0.00141 | 0.0016 | 0.0018
x2 = 0.001799, x1 = 2.17e-06 | 0.00119 | 0.00135 | 0.00153 | 0.00172 | 0.00194
x2 = 0.001799, x1 = 2.54e-06 | 0.00127 | 0.00145 | 0.00166 | 0.00187 | 0.00209
x2 = 0.001799, x1 = 2.72e-06 | 0.00134 | 0.00155 | 0.00178 | 0.002 | 0.00225
x2 = 0.001799, x1 = 3.08e-06 | 0.0014 | 0.00162 | 0.00186 | 0.0021 | 0.00237
x2 = 0.001799, x1 = 3.26e-06 | – | – | 0.00195 | 0.00223 | 0.00251
x2 = 0.001799, x1 = 3.44e-06 | 0.00146 | 0.00169 | – | – | –
x2 = 0.001799, x1 = 3.81e-06 | 0.00155 | 0.0018 | 0.00206 | 0.00236 | 0.00267
x2 = 0.001799, x1 = 4.35e-06 | 0.00167 | 0.00192 | 0.0022 | 0.00253 | 0.00287
x2 = 0.001799, x1 = 4.89e-06 | 0.00179 | 0.00206 | 0.00236 | 0.0027 | 0.00307
x2 = 0.001799, x1 = 5.44e-06 | 0.00192 | 0.0022 | 0.00252 | 0.00289 | 0.00328
x2 = 0.001799, x1 = 5.98e-06 | 0.00202 | 0.00232 | 0.00265 | 0.00303 | 0.00344
x2 = 0.001799, x1 = 6.34e-06 | – | – | – | – | 0.00359
x2 = 0.001799, x1 = 6.52e-06 | 0.00213 | 0.00244 | 0.00278 | 0.00316 | –

CCCCCCCCCCCCCC[P+](CCCCCC)(CCCCCC)CCCCCC.O=S(=O)([N-]S(=O)(=O)C(F)(F)F)C(F)(F)F + O
Details | viscosity [mPa·s]
328.15 K, 100 kPa, x2 = 0.088 | 65.75

CCCCO + CCCC[n+]1ccn(C)c1.N#C[S-]
101 kPa, x1 = 1
Details | viscosity [mPa·s]
328.15 K | 1.25
348.15 K | 0.846

[Cl-].[Cl-].[Co+2] + CCCCCCCC[N+](CCCCCCCC)(CCCCCCCC)CCCCCCCC.[Br-] + CCCCCCCC(=O)O
296.1 K, 101.3 kPa
Details | viscosity [mPa·s]
x2 = 0.2857, x1 = 0.1429 | 2615
x2 = 0.4, x1 = 0.2 | 5700
x2 = 0.4286, x1 = 0.1429 | 7600

CCCCCC[n+]1ccn(C)c1.N#Cc1ccc[n-]1 + CCCCCCCCCCCCCC[P+](CCCCCC)(CCCCCC)CCCCCC.O=S(=O)([N-]S(=O)(=O)C(F)(F)F)C(F)(F)F
283.15 K, 100 kPa
Details | viscosity [mPa·s]
x2 = 0 | 900
x2 = 0.1 | 890
x2 = 0.2 | 880
x2 = 0.501 | 850
x2 = 0.601 | 880
x2 = 0.7 | 850
x2 = 0.8 | 870
x2 = 0.9 | 810

COC[n+]1ccn(C)c1.O=S(=O)([N-]S(=O)(=O)C(F)(F)F)C(F)(F)F + O
Details | viscosity [mPa·s]
283 K, 101 kPa, x1 = 0.8283 | 80.4
